# Measurements taken from PubChem BioAssay AID624435 (The Scripps Research Institute Molecular Screening Center, 2012).
# Calls of active or inactive are those of the source.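 The calls were made as follows: active = inhibition of 30% or more at 100 µM, inferred from the inactive rule; inactive = inhibition below 30% at 100 µM.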
# Molecular target: Serine/threonine-protein phosphatase 5 (Homo sapiens) (UniProt P53041)
# Assay: PP5c phosphohistone dephosphorylation blockade – biochemical, radiolabel, round 5, powder samples, orthogonal assay for PP5 inhibitor project, late-stage follow-up (AID 624435)
# Conditions: purified PP5c, 33P-phosphohistone dephosphorylation, scintillation; at 50 µM; stronger effect = higher value
# Sequence of Serine/threonine-protein phosphatase 5 (Homo sapiens) (P53041 whole entry, looked up): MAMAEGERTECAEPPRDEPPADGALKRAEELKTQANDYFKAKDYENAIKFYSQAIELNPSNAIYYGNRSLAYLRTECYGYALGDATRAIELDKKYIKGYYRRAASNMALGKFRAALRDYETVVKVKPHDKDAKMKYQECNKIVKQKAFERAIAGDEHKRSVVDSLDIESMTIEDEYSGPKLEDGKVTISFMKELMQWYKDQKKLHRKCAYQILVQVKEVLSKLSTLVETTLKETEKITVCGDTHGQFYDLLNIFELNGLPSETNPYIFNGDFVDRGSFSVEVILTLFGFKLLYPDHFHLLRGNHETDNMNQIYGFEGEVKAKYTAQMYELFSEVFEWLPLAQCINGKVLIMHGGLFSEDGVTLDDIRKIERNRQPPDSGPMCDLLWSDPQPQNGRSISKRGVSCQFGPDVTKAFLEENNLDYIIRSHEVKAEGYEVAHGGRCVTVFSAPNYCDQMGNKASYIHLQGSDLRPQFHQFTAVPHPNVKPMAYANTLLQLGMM
row,SMILES,inhibition
1,O=C(O)c1nc2ncccn2n1,-1.84% (inactive)
2,O=C(O)c1ccccc1-c1nn[nH]n1,0.116% (inactive)
3,O=C(O)c1n[nH]c2ccccc12,-1.07% (inactive)
4,O=C(O)c1csc(Nc2ccccc2)n1,-0.948% (inactive)
5,O=C(O)c1nnn(-c2ccccc2)c1-c1ccccc1,0.733% (inactive)
6,O=C(O)c1cc(-c2ccccc2)n[nH]1,-4.55% (inactive)
7,Cc1n[nH]nc1C(=O)O,-4.84% (inactive)
8,O=C(O)c1c[nH]cc1-c1ccccc1,-2.04% (inactive)
9,CC(C)c1ccccc1-c1n[nH]nc1C(=O)O,30.2%
10,O=C(O)CCn1nnc2ccccc21,0.241% (inactive)
11,Cc1ccccc1-c1n[nH]nc1C(=O)O,39%
12,O=C(O)c1cccn1-c1ccccc1,-3.17% (inactive)
13,CCc1ccccc1-c1n[nH]nc1C(=O)O,44.3%
14,O=C(O)c1n[nH]nc1-c1ccccn1,31.5%
15,O=C(O)c1n[nH]nc1-c1cccnc1,2.2% (inactive)
16,O=C(O)c1cnn2ccccc12,-5.1% (inactive)
17,O=C(O)c1cc(-c2ccccc2)ncn1,-6.61% (inactive)
18,O=C(O)c1nc(-n2cccc2)n[nH]1,-1.61% (inactive)

row,SMILES,inhibition
1,COC(=O)c1n[nH]nc1-c1ccccc1,1.67% (inactive)
2,CC(C)Oc1ccccc1-c1n[nH]nc1C(=O)O,67.5%
3,O=C(O)c1c(-c2ccccc2)nnc2ccccc12,-0.78% (inactive)
4,O=C(O)c1nn(Cc2ccccc2)nc1Cl,0.71% (inactive)
5,O=C(O)Cn1nnc2ccccc21,0.388% (inactive)
6,O=C(O)c1n[nH]nc1-c1ccccc1-c1ccccc1,41.2%
7,Cc1cccc(-n2cnc(C(=O)O)c2)c1,2.84% (inactive)
8,Cc1onc(C(=O)O)c1Cn1cccn1,-2.66% (inactive)
9,O=C(O)c1cn[nH]c1-c1ccccc1,-5.7% (inactive)
10,Cc1scc(C(=O)O)c1-c1ccccc1,-4.13% (inactive)
11,O=C(O)c1ccccc1-n1cccc1,-7.51% (inactive)
12,O=C(O)c1cn[nH]n1,-0.0127% (inactive)
13,O=C(O)c1ncn[nH]1,2.61% (inactive)
14,O=C(O)c1cn(Cc2ccccc2)nn1,-4.42% (inactive)
15,O=C(O)c1cc2ccccn2n1,-0.0487% (inactive)
16,O=C(O)c1cc2cccnc2[nH]1,-2.5% (inactive)
17,Cc1cccc(-c2noc(C)c2C(=O)O)c1,-5.14% (inactive)
18,O=C(O)c1ccccc1-c1ccccc1,-5.88% (inactive)
